Data taken from patent US7723023B2, “Use of intrinsic reporters of cell signaling for high content drug profiling and toxicity screening” (Mount Sinai School of Medicine, priority 2001, dated 2010).

Key:
[1] = tested on: gonadotrope cell line LβT2 cells; assay: Time course of IRC response to GnRH in presence and absence of cyclohexamide (CHX); type: cell-based, mouse; conditions: 100 nM GnRH, protein synthesis inhibitor cyclohexamide
Description: The cells were treated with 100 nM GnRH in the presence and absence of the inhibitor of protein synthesis, cyclohexamide (CHX). […] No other proteins need to be synthesized to induce activation of this IRC. The use of a time course such as that illustrated allow selection of the optimum time point or time points after stimulation at which to assay the IRCs to provide the most complete map of the cell global signal transduction response.
The proper time point or time points after exposure can be determined experimentally in any system by performing a time course of the gene response. If a single time point after exposure is assayed, it is best to select a time at which most IRCs are continuing to show an increase in the level of expression. This is usually between 30 minutes and 1 hour.

[2] = tested on: GnRHR-expressing LβT2 gonadotrope cell line; assay: SYBR green real-time PCR of transcripts regulated by GnRH in LβT2 cells; type: cell-based, mouse; conditions: 1 hour
Description: Cell Culture and Sample Preparation: LβT2 cells were obtained and maintained at 37° C. in 5% CO2 in humidified air in DMEM (Mediatech) containing 10% fetal bovine serum (Gemini). For experiments. 40-50×10^6 cells were seeded in 15 cm dishes. The medium was replaced 21 hours later with DMEM containing 25 mM HEPES (Mediatech) and glutamine. 18 hours later, the cells were treated with 100 nM GnRH or vehicle and were returned to the CO2 incubator for 1 hour. The incubation was stopped by aspirating the incubation medium and adding 10 ml of lysis buffer (4M guanidinium thiocyanate, 25 mM sodium citrate, pH 7.0, 0.5% N-lauroyl-sarcosine, and 0.1 M 2-mercaptoethanol). Total RNA was isolated according to the method of Chomczynski and Sacchi (1987) supra. Approximately 400 μg total RNA was obtained from each plate.
Real Time PCR. The protocol of Example 1 above, was used. Briefly, […] total RNA was converted into cDNA and […] (approximately 500 pg) was utilized for 40 cycle three-step PCR in an ABI Prism 7700 with 20 mM Tris pH 8.4, 50 mM KCL, 3 mM MgCl2, 200 μM dNTPs, 0.5×SYBR® green (Molecular Probes), […] primer and 0.5 U Platinum Taq (Life Technologies). Amplicon size and reaction specificity was confirmed by agarose gel electrophoresis. The number of target copies in each sample was interpolated from its detection threshold (CT) value using a plasmid or purified PCR product standard curve included on each plate. The sequence of the 60 primer sets utilized can be found in supplementary material. Each transcript in each sample was assayed 5 times and the median CT values were used for analysis.
Confirmation of Gene Regulation by Real-Time PCR. The measurement accuracy of the microarray and the biological variability of the transcriptional program identified was evaluated through a validation study comprising real time PCR assays of 60 transcripts, including 26 genes that met the threshold for regulation in the microarray assay. To generate accurate and precise reference measurements of these genes, 5 measurements were made of each gene in each RNA sample and the measurements were calibrated with a standard curve included on each PCR plate (FIG. 4). Nine experimental pairs of vehicle and GnRH-treated cultures were tested, including the microarray assayed samples. 100% (17 of 17) of the gene changes showing >1.6-fold change on the microarray and 66% (6 of 9) of gene changes showing between 1.3 and 1.6-fold changes were confirmed by PCR. […] Because the threshold was set at a 1.3-fold change, these genes are considered to be not confirmed (see discussion below).

[3] = 100 nM GnRH vs vehicle, LβT2 cells
[4] = gene did not meet the criteria on the microarray, 100 nM GnRH

Substance: gonadotropin releasing hormone [GnRH]
- levels of gly96 in the presence of CHX [1]: increase
- 1κB fold-change, SYBR PCR (n = 9) [2, 3]: 2.6 ± 0.2 fold
- Egr1 fold-change, SYBR PCR (n = 9) [2, 3]: 390.6 ± 83.9 fold
- Egr2 fold-change, SYBR PCR (n = 9) [2, 3]: 294.7 ± 35.6 fold
- Gem fold-change, SYBR PCR (n = 9) [2, 3]: 4.3 ± 0.3 fold
- HSP30 fold-change, SYBR PCR (n = 9) [2, 3]: 1.9 ± 0.2 fold
- Klf4 fold-change, SYBR PCR (n = 9) [2, 3]: 2.9 ± 0.3 fold
- Klf-like EST fold-change, SYBR PCR (n = 9) [2, 3]: 2.5 ± 0.2 fold
- LRG21 fold-change, SYBR PCR (n = 9) [2, 3]: 96.8 ± 15.7 fold
- MKP1/3CH134 fold-change, SYBR PCR (n = 9) [2, 3]: 3.4 ± 0.4 fold
- NMDMC fold-change, SYBR PCR (n = 9) [2, 3]: 1.6 ± 0.3 fold
- Nr4a1/nur77 fold-change, SYBR PCR (n = 9) [2, 3]: 49.4 ± 10.1 fold
- Nrf2 fold-change, SYBR PCR (n = 9) [2, 3]: 1.5 ± 0.1 fold
- PRL1 fold-change, SYBR PCR (n = 9) [2, 3]: 2.1 ± 0.1 fold
- Period1 fold-change, SYBR PCR (n = 9) [2, 3]: 4.9 ± 1.1 fold
- Rgs2 fold-change, SYBR PCR (n = 9) [2, 3]: 8.7 ± 0.4 fold
- TSC22 fold-change, SYBR PCR (n = 9) [2, 3]: 3.3 ± 0.2 fold
- c-fos fold-change, SYBR PCR (n = 9) [2, 3]: 52.0 ± 5.8 fold
- c-jun fold-change, SYBR PCR (n = 9) [2, 3]: 6.6 ± 0.9 fold
- gly96 fold-change, SYBR PCR (n = 9) [2, 3]: 3.8 ± 0.5 fold
- ler2/Pip92 fold-change, SYBR PCR (n = 9) [2, 3]: 17.1 ± 2.4 fold
- transgelin fold-change, SYBR PCR (n = 9) [2, 3]: 1.8 ± 0.2 fold
- β-actin fold-change, SYBR PCR (n = 9) [2, 3]: 1.6 ± 0.1 fold
- γ-actin fold-change, SYBR PCR (n = 9) [2, 3]: 3.9 ± 0.4 fold
- SCL regulation by real-time PCR [2, 4]: 2.4 fold
- STY kinase regulation by real-time PCR [2, 4]: 1.7 fold
- glucose transport protein regulation by real-time PCR [2, 4]: 2.2 fold
